# pEC50: −log10 of the molar value.
# How the values were obtained:
# Type in all cases: cell-based
# [1] = target: T1, rat estrogen receptor (pCI-rER α) (Rattus norvegicus, UniProt P06211); experiment: Estrogenic activity, estrogen receptor-dependent luciferase reporter gene assay in COS-1 cells; settings: for Relative Activity (%) at the Same Amount of β-estradiol: β-estradiol = 100; for pEC50: 50% of luciferase activity of β-estradiol at 10 nM (=100), COS-1
# T1 construct: expressed in transfected cells; host or cells: COS-1 cells
# T1 sequence (P06211 1-600): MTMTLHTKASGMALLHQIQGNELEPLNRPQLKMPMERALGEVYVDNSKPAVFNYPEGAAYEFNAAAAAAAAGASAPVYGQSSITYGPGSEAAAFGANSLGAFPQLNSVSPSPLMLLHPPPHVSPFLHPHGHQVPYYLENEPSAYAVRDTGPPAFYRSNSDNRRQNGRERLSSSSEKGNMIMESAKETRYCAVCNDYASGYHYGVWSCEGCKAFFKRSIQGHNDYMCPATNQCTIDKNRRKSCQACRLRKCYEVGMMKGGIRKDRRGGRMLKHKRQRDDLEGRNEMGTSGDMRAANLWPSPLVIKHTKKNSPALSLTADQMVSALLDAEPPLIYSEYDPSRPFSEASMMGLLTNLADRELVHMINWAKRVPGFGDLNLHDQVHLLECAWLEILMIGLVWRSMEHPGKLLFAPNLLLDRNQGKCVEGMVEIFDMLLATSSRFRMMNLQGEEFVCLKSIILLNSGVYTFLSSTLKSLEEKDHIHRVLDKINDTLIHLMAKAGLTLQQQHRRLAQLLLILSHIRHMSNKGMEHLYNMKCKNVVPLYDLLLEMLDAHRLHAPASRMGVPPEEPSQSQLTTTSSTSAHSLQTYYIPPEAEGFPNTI
# Method: As estrogenic activity, estrogen receptor-dependent transcriptional activation abilities of the test compounds were determined by the r porter gene assay using luciferase gene. COS-1 cells were cultured using a DMEM medium containing an antibiotics and 5% bovine fetal serum in the wells of 24 well plates (cell density: 5 to 6×10^4/well) at 37° C. for one night under 5% carbon dioxide. On the next day, the medium was changed to DMEM medium not containing Phenol Red. Using gene introducing reagent Tfx-20 (Promega), reporter plasmid EREx3-pGL-TK, in which rat estrogen receptor expression plasmid pCI-rER α and an estrogen responsive sequence were placed upstream of the luciferase gene, and β-galactosidase expression plasmid pCMV β used as an internal standard were introduced into cells. The cells were cultured for 2 h, and the medium was changed to DMEM not containing Phenol Red but containing active charcoal-treated serum.
# The culture was added with each test compound dissolved in ethanol at various concentrations (final ethanol concentration at 0.5%) and then cultivation was continued at 37° C. for one night under 5% carbon dioxide. On the next day, the cells were lysed and enzymatic activity of luciferase expressed was measured by using a chemiluminometer. The values were standardized based on galactocidase enzymatic activity, and then compared with the values obtained by experiments using no test compound and used as values of activity at various concentrations. […] The estrogenic activities in the table are shown as concentrations for 50% activity (EC50 values) which give 50% activities relative to luciferase activity regarded as 100 that is expressed by treatment with the control compound β-estradiol at 10 nM. Each compound tested in this experiment has a high estrogenic activity.
# Estrogenic activities, i.e., estrogen receptor-dependent transcriptional abilities of test compounds, were determined by the reporter gene assay using the luciferase gene in the same manner as those described above. In this experiment (Table 6), estrogenic activities at 0.1 nM, 1 nM, and 10 nM of the test compounds are shown as relative values in view of the luciferase activity regarded as 100 which is expressed at the same amounts of β-estradiol as a control, and intensities of activities were compared. Each compound tested in this experiment has high estrogenic activity.
# [2] = system: human promyelocytic leukemia cell strain HL-60; experiment: HL-60 differentiation with coexisting differentiation inducer Am80 (anti-differentiation activity); settings: coexisting Am80 1×10^−9 M (Table 4)
# [3] = system: human promyelocytic leukemia cell strain HL-60; experiment: HL-60 differentiation induction, test compound alone; settings: for differentiation inducing activity at low concentration (in words): 0.01 μM test compound; for differentiation inducing activity at low concentration (in words) / differentiation inducing activity (in words): HL-60; for percentage of differentiated cells, no coexisting compound: HL-60, 4 days, control <10; for differentiation inducing activity (in words): test compound alone
# Method: Inhibitory activity against proliferation of human promyelocytic leukemia cell strain HL-60 was evaluated an index of anti-leukemia activity. Subcultured HL-60 cells were seeded with the initial cell number of 8×10^4 cells/ml in the RPMI 1640 medium containing bovine fetal serum and an antibiotics. Each test compound was added at various concentrations and the mixture was cultured at 37° C. Four days later, cell number was counted. Anti-leukemia activity of each test compound was shown in the tables as percentage values of differentiated cells, which cells were not differentiated in the absence of the test drug, […] observation and NBT reducing ability of the cells as indexes.
# [4] = test compound 1 μM, morphology and NBT reducing ability
# [5] = relative activity experiment (Table 6)
Substance,Relative Activity (%) at the Same Amount of β-estradiol ([1]; 1 nM) [%],Relative Activity (%) at the Same Amount of β-estradiol ([1]; 10 nM) [%],pEC50 [1],also measured
"1-(3-hydroxypropyl)-12-(4-hydroxyphenyl)-1,12-dicarba-closo-dodecaborane [BE123]",56,79,–,Relative Activity (%) at the Same Amount of β-estradiol ([1]; 0.1 nM): 29%
"1-hydroxyethyl-12-(4-hydroxyphenyl)-1,12-dicarba-closo-dodecaborane [BE121]",–,–,9.00,estrogenic activity compared with β-estradiol (in words) ([1]; EC50 experiment (Table 5)): much higher activity than that of β-estradiol
1-hydrocarbonyl-12-(4-hydroxyphenyl)-12-dicarba-closo-dodecaborane [BE130],–,–,8.00,–
"4-(2,3,4,5,6,7,8,9,10,11-decamethyl-1,12-dicarba-closo-dodecaborane-1-carbonylamino) benzoic acid [BR635]",–,–,–,anti-differentiation activity (in words) [2]: remarkable anti-differentiation activities
"4-[3-(2-propyl-1,2-dicarba-closo-dodecaboran-1-yl)phenylamino]benzoic acid [BR453]",–,–,–,"differentiation inducing activity at low concentration (in words) [3]: activities were maintained; percentage of differentiated cells, no coexisting compound ([3]; test compound 0.01 μM): 80%; percentage of differentiated cells, no coexisting compound [3, 4]: 80%; differentiation inducing activity (in words) [3]: strong differentiation inducing activities"
"4-[4-(2-propyl-1,2-dicarba-closo-dodecaboran-1-yl)phenylamino]benzoic acid [BR403]",–,–,–,"differentiation inducing activity at low concentration (in words) [3]: activities were maintained; percentage of differentiated cells, no coexisting compound ([3]; test compound 0.01 μM): 84%; percentage of differentiated cells, no coexisting compound [3, 4]: 82%; differentiation inducing activity (in words) [3]: strong differentiation inducing activities"
"1-hydroxy-12-(4-hydroxyphenyl)-1,12-dicarba-closo-dodecaborane [BE119]",132,120,–,"Relative Activity (%) at the Same Amount of β-estradiol ([1]; 0.1 nM): 133%; estrogenic activity compared with β-estradiol (in words) [1, 5]: much higher activities than that of β-estradiol"
"1-methoxycarbonyl-12-(4-hydroxyphenyl)-1,12-dicarba-closo-dodecaborane [BE110]",–,–,8.70,–
"1-(4-hydroxyphenyl)-1,12-dicarba-closo-dodecaborane [BE100]",63,82,9.15,Relative Activity (%) at the Same Amount of β-estradiol ([1]; 0.1 nM): 51%; estrogenic activity compared with β-estradiol (in words) ([1]; EC50 experiment (Table 5)): much higher activity than that of β-estradiol
"4-(2,3,4,5,6,7,8,9,10,11-decamethyl-1,12-dicarba-closo-dodecaborane-1-carbonylamino) benzoic acid [BR630]",–,–,–,anti-differentiation activity (in words) [2]: remarkable anti-differentiation activities
"1-hydroxymethyl-12-(4-hydroxyphenyl)-1,12-dicarba-closo-dodecaborane [BE120]",163,126,10.30,"Relative Activity (%) at the Same Amount of β-estradiol ([1]; 0.1 nM): 212%; estrogenic activity compared with β-estradiol (in words) ([1]; EC50 experiment (Table 5)): much higher activity than that of β-estradiol; estrogenic activity compared with β-estradiol (in words) [1, 5]: much higher activities than that of β-estradiol"
"1-(2-hydroxyethyl)-12-(4-(hydroxyphenyl)-1,12-dicarba-closo-dodecaborane [BE122]",98,104,–,Relative Activity (%) at the Same Amount of β-estradiol ([1]; 0.1 nM): 83%

# Further lines, with some results ahead:
Relative Activity (%) at the Same Amount of β-estradiol ([1]; 1 nM) [%],Relative Activity (%) at the Same Amount of β-estradiol ([1]; 10 nM) [%],pEC50 [1],Substance,also measured
12,31,–,"1-(3-hydroxypropyl)-12-(3-hydroxyphenyl)-1,12-dicarba-closo-dodecaborane [BE323]",–
38,85,–,"1-(2-hydroxyethyl)-7-(4-hydroxyphenyl)-1,7-dicarba-closo-dodecaborane [BE222]",–
11,38,–,"1-(3-hydroxyphenyl)-1,7-dicarba-closo-dodecaborane [BE400]",–
43,85,–,"1-(2-hydroxyethyl)-12-(3-hydroxyphenyl)-1,12-dicarba-closo-dodecaborane [BE322]",–
11,24,–,"1-(2-hydroxyethyl)-7-(3-hydroxyphenyl)-1,7-dicarba-closo-dodecaborane [BE422]",–
–,–,9.30,"1-amino-12-(4-hydroxyphenyl)-1,12-dicarba-closo-dodecaborane [BE140]",estrogenic activity compared with β-estradiol (in words) ([1]; EC50 experiment (Table 5)): much higher activity than that of β-estradiol
18,59,–,"1-(2-hydroxymethyl)-7-(3-hydroxyphenyl)-1,7-dicarba-closo-dodecaborane [BE420]",–
<10,15,–,"1-(3-hydroxypropyl)-7-(3-hydroxyphenyl)-1,7-dicarba-closo-dodecaborane [BE423]",–
127,127,–,"1-(2-hydroxymethyl)-12-(3-hydroxyphenyl)-1,12-dicarba-closo-dodecaborane [BE320]","Relative Activity (%) at the Same Amount of β-estradiol ([1]; 0.1 nM): 116%; estrogenic activity compared with β-estradiol (in words) [1, 5]: much higher activities than that of β-estradiol"
20,51,–,"1-(3-hydroxypropyl)-7-(4-hydroxyphenyl)-1,7-dicarba-closo-dodecaborane [BE223]",–
14,38,–,"1-hydroxy-7-(3-hydroxyphenyl)-1,7-dicarba-closo-dodecaborane [BE419]",–
40,71,–,"1-hydroxy-7-(4-hydroxyphenyl)-1,7-dicarba-closo-dodecaborane [BE219]",–
20,59,–,"1-(3-hydroxyphenyl)-1,12-dicarba-closo-dodecaborane [BE300]",–
–,–,9.00,"1,12-bis(4-hydroxyphenyl)-1,12-dicarba-closo-dodecaborane [BE160]",–
45,72,8.70,"1-(4-hydroxyphenyl)-1,7-dicarba-closo-dodecaborane [BE200]",–
–,–,9.00,"1,7-bis(4-hydroxyphenyl)-1,7-dicarba-closo-dodecaborane [BE260]",–
53,72,–,"1-hydroxy-12-(3-hydroxy phenyl)-1,12-dicarba-closo-dodecaborane [BE319]",–

# Reference: patent US6838574B1, “Dicarba-closo-dodecarborane derivatives” (Institute of Medicinal Molecular Design, Inc., priority 1999, dated 2005)
